Laboratory results taken from publication PMC12916490 (Molecular Psychiatry, 2025).

Molecular target: T1, h5-HT2C (Homo sapiens, UniProt P28335)
T1 sequence (P28335 33-458): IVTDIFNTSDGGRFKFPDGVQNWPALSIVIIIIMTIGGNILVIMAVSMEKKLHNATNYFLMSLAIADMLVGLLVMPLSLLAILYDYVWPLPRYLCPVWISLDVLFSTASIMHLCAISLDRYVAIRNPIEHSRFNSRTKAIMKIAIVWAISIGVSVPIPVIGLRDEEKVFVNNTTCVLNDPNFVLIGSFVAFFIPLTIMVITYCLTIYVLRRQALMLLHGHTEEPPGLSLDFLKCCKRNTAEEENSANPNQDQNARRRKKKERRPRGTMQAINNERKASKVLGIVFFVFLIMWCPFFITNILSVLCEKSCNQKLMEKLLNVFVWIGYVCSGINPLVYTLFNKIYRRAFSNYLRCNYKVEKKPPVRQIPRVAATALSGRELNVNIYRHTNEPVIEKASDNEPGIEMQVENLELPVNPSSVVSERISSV
Test: biochemical
Type: binding
Details: not given

| Structure (SMILES) | Ki [nM] |
| --- | --- |
| COc1ccc(OC)c(CC(C)N)c1.Cl (centres unmarked) [2,5-DMA, 2,5-Dimethoxyamphetamine hydrochloride] | > 5000 |
| CCCCCc1cc(OC)c(CC(C)N)cc1OC (centres unmarked) [DOAM, 4-amyl-2,5-dimethoxyamphetamine] | 75 |
| CCCCc1cc(OC)c(CC(C)N)cc1OC (centres unmarked) [DOBU, 4-butyl-2,5-dimethoxyamphetamine] | 60 |
| CCCc1cc(OC)c(CC(C)N)cc1OC.Cl (centres unmarked) [DOPR, 4-propyl-2,5-dimethoxyamphetamine hydrochloride] | 47 |

Molecular target: T2, hD2 (Homo sapiens, UniProt P14416)
T2 construct: expressed in transfected cells; host or cells: HEK 293 cells (membrane preparation)
Test: Radioligand binding, hD2 receptor ([3H]spiperone)
Details: not given
Protocol: Binding affinities at human monoamine receptors and transporters were assessed as previously reported. A detailed description of the methodology is provided in the Supplementary information.
(§1) Data analysis was performed with Prism software (version 10.1.2, GraphPad Software, Boston, MA, USA). The IC50 values from the radioligand binding assays were determined by nonlinear regression, using three independent concentration-response curves fitted to a one-site model. The Cheng-Prusoff equation was used to calculate Kᵢ values for the competing ligands. EC50 values were determined by applying nonlinear regression to concentration-response curves. Bias factors (β) were calculated based on the relative intrinsic activity approach. More detailed information can be found in the Supplementary information. Mean values for total number of HTR, change in body temperature from pre to post session (Δ°C), and total distance traveled (cm) for each drug dose were compared (p < 0.05) via Welch’s ANOVA with Dunnett’s T3 post test, comparing all doses to respective vehicle controls (0 mg/kg). Welch’s ANOVA with Dunnett’s T3 post test was also used to compare drug concentrations, but the data were compared to DOM in this case. Dose–response relationships for HTR and locomotor activities were plotted using bell-shaped curve fits, while temperature change data were plotted using four-parameter non-linear regression curve fits. The ascending phase of the HTR curve for each drug was used to determine ED50 potency values from four parameter non-linear regression fits. For combined DOM and DOAM administration, the plasma, brain tissue, and brain dialysate drug concentrations were compared using paired t-tests (p < 0.05). Ratios were compared using Holm-Sidak’s post hoc test following a repeated-measures one-way ANOVA (F (1.709, 6.835) = 70.80; p < 0.0001).
3.1 Assessment of receptor and transporter binding affinities
Membrane preparations were prepared from cells transfected with the respective target. The membrane preparations were then incubated with selective radioligands at concentrations equal to the corresponding Kd and displacement of the ligand by the drugs was measured. The difference between total binding and nonspecific binding (determined in the presence of selective competitors) was defined as specific binding of the radioligand to the target receptor. The following transfected cell lines were used for the binding assays: HEK 293 cells (h5-HT1A, h5-HT2A, h5-HT2B, h5-HT2C, and hD2 receptors, hDAT, hNET, and hSERT), Chinese hamster ovary cells (hα 1A receptor), and Chinese hamster lung cells (hα 2A receptor).
3.1.1 Membrane preparations for receptor and transporter binding
For producing membrane preparations, transfected cells were harvested with trypsin/EDTA, washed with ice-cold phosphate buffered saline, and then pelleted by centrifugation (210 × g for 5 min at 4 °C). The pellets were frozen and stored at -80 °C until use. Frozen pellets were resuspended in 20 m L (receptor binding) or 400 m L (transporter binding) buffer (20 mM HEPES -NaOH, 10 mM EDTA, pH 7.4), and homogenized at 1,100 × g for 20 s (receptor binding) or 560 × g for 15 s (transporter binding); the homogenates were then centrifuged at 48,000 × g for 30 min at 4 °C. […]
Competitive binding at the h5-HT1A and h5-HT2A receptor was determined using 0.90 nM [ 3H]8-hydroxy-2-(di-n-propylamine)tetralin ([ 3H]8-OH-DPAT; h5-HT1A receptor agonist) and 0.40 nM [3H]ketanserin (h5-HT2 receptor antagonist) as radioligands. […]

T2 sequence (P14416 whole entry): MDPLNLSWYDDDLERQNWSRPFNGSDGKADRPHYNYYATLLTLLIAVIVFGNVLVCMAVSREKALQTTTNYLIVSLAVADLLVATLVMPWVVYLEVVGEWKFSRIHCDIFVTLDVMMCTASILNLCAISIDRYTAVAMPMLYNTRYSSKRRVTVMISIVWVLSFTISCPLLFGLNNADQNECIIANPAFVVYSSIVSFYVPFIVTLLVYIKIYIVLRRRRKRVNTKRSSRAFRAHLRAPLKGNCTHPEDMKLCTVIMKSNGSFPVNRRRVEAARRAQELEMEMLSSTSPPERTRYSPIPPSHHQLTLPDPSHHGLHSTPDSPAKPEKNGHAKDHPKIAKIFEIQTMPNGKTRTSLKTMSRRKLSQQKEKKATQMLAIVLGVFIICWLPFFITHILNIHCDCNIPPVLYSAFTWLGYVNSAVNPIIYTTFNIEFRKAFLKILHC

| Structure (SMILES) | Ki [µM] |
| --- | --- |
| COc1ccc(OC)c(CC(C)N)c1.Cl (centres unmarked) [2,5-DMA, 2,5-Dimethoxyamphetamine hydrochloride] | > 13 |
| CCCCCc1cc(OC)c(CC(C)N)cc1OC (centres unmarked) [DOAM, 4-amyl-2,5-dimethoxyamphetamine] | > 13 |
| CCCCc1cc(OC)c(CC(C)N)cc1OC (centres unmarked) [DOBU, 4-butyl-2,5-dimethoxyamphetamine] | > 13 |
| CCc1cc(OC)c(CC(C)N)cc1OC (centres unmarked) [DOET, 4-ethyl-2,5-dimethoxyamphetamine] | > 13 |
| COc1cc(CC(C)N)c(OC)cc1C (centres unmarked) [DOM, 4-methyl-2,5-dimethoxyamphetamine] | > 7.5 |

Tested on: C57BL/6 J mice
Test: Locomotor activity in mice (dose-response sessions)
Type: in vivo, mouse
Details: 0.01 mg/kg s.c.; 30-min session; mean ± SEM
Protocol: Behavioral studies were conducted as previously described with minor modifications. Male C57BL/6 J mice (The Jackson Laboratory #000664, 24 mice/drug) were purchased at 8 weeks old, group housed for acclimation (3–5 per cage for 1–2 weeks) under a 12:12 light:dark cycle (07:00 local time = lights on), with ad libitum access to food and water at the NIDA IRP facilities in Baltimore, MD, USA. All experiments were approved by the NIDA IRP Animal Care and Use Committee. After acclimation to the vivarium facilities, each mouse was briefly anesthetized with isoflurane and a temperature transponder (14 × 2 mm, model IPTT-300, Bio Medic Data Systems, Inc., Seaford, DE, USA) was implanted subcutaneously (s.c.) on the back, posterior to the shoulder blades. After the implant, mice were single housed and allowed one week recovery prior to the start of experiments. […] Drugs were randomly assigned and administered s.c. as the weight of the form used at an injection volume of 0.01 mL/g body weight.
During experimental testing, mice were tested once every 1–2 weeks to avoid potential tolerance to behavioral effects of the test drugs and were tested 2–3 times in total per drug. Each test session began with a brief 5 min acclimation period to the testing arenas, followed by recording baseline body temperature using a handheld wand that was sensitive to the signals emitted from the s.c. transponder. After this, mice were injected s.c. with appropriate doses of test drug and returned to the chambers for a 30-min test session. During the dose-response sessions, locomotor activity was continuously recorded using open field chambers with photobeam arrays (Coulbourn Instruments, Holliston, MA, USA) that were modified with cylindrical inserts and custom floor panels that also allowed video recordings of each mouse to later quantify HTR activity (GoPro Hero 7 camera; 960p resolution at 120 frames per second). Videos for each mouse were analyzed post session using commercially available software used to quantify HTR as previously described.
as §1
Locomotor activity and body temperature were also assessed to monitor other pharmacological effects of the drugs that may impact the HTR. […]

| Structure (SMILES) | Locomotor activity (distance traveled) |
| --- | --- |
| CCCc1cc(OC)c(CC(C)N)cc1OC.Cl (centres unmarked) [DOPR, 4-propyl-2,5-dimethoxyamphetamine hydrochloride] | 2,728 ± 251 cm |

Same assay, conditions: 0.03 mg/kg s.c.; 30-min session; mean ± SEM

| Structure (SMILES) | Locomotor activity (distance traveled) |
| --- | --- |
| COc1ccc(OC)c(CC(C)N)c1.Cl (centres unmarked) [2,5-DMA, 2,5-Dimethoxyamphetamine hydrochloride] | 2,854 ± 266 cm |
| CCCCCc1cc(OC)c(CC(C)N)cc1OC (centres unmarked) [DOAM, 4-amyl-2,5-dimethoxyamphetamine] | 2,867 ± 167 cm |
| CCCCc1cc(OC)c(CC(C)N)cc1OC (centres unmarked) [DOBU, 4-butyl-2,5-dimethoxyamphetamine] | 2,386 ± 181 cm |
| COc1cc(CC(C)N)c(OC)cc1C (centres unmarked) [DOM, 4-methyl-2,5-dimethoxyamphetamine] | 2,696 ± 154 cm |
| CCCc1cc(OC)c(CC(C)N)cc1OC.Cl (centres unmarked) [DOPR, 4-propyl-2,5-dimethoxyamphetamine hydrochloride] | 2,493 ± 199 cm |

Same assay, conditions: 0.1 mg/kg s.c.; 30-min session; mean ± SEM

| Structure (SMILES) | Locomotor activity (distance traveled) |
| --- | --- |
| COc1ccc(OC)c(CC(C)N)c1.Cl (centres unmarked) [2,5-DMA, 2,5-Dimethoxyamphetamine hydrochloride] | 2,763 ± 284 cm |
| CCCCCc1cc(OC)c(CC(C)N)cc1OC (centres unmarked) [DOAM, 4-amyl-2,5-dimethoxyamphetamine] | 2,677 ± 103 cm |
| CCCCc1cc(OC)c(CC(C)N)cc1OC (centres unmarked) [DOBU, 4-butyl-2,5-dimethoxyamphetamine] | 2,342 ± 184 cm |
| COc1cc(CC(C)N)c(OC)cc1C (centres unmarked) [DOM, 4-methyl-2,5-dimethoxyamphetamine] | 2,522 ± 203 cm |
| CCCc1cc(OC)c(CC(C)N)cc1OC.Cl (centres unmarked) [DOPR, 4-propyl-2,5-dimethoxyamphetamine hydrochloride] | 2,791 ± 131 cm |

Same assay, conditions: 0.3 mg/kg s.c.; 30-min session; mean ± SEM

| Structure (SMILES) | Locomotor activity (distance traveled) |
| --- | --- |
| COc1ccc(OC)c(CC(C)N)c1.Cl (centres unmarked) [2,5-DMA, 2,5-Dimethoxyamphetamine hydrochloride] | 2,584 ± 157 cm |
| CCCCCc1cc(OC)c(CC(C)N)cc1OC (centres unmarked) [DOAM, 4-amyl-2,5-dimethoxyamphetamine] | 2,307 ± 244 cm |
| CCCCc1cc(OC)c(CC(C)N)cc1OC (centres unmarked) [DOBU, 4-butyl-2,5-dimethoxyamphetamine] | 2,535 ± 61 cm |
| COc1cc(CC(C)N)c(OC)cc1C (centres unmarked) [DOM, 4-methyl-2,5-dimethoxyamphetamine] | 3,051 ± 367 cm |
| CCCc1cc(OC)c(CC(C)N)cc1OC.Cl (centres unmarked) [DOPR, 4-propyl-2,5-dimethoxyamphetamine hydrochloride] | 3,680 ± 100 cm |

Same assay, conditions: 1 mg/kg s.c.; 30-min session; mean ± SEM

| Structure (SMILES) | Locomotor activity (distance traveled) |
| --- | --- |
| COc1ccc(OC)c(CC(C)N)c1.Cl (centres unmarked) [2,5-DMA, 2,5-Dimethoxyamphetamine hydrochloride] | 2,630 ± 184 cm |
| CCCCCc1cc(OC)c(CC(C)N)cc1OC (centres unmarked) [DOAM, 4-amyl-2,5-dimethoxyamphetamine] | 2,421 ± 129 cm |
| CCCCc1cc(OC)c(CC(C)N)cc1OC (centres unmarked) [DOBU, 4-butyl-2,5-dimethoxyamphetamine] | 3,030 ± 217 cm |
| COc1cc(CC(C)N)c(OC)cc1C (centres unmarked) [DOM, 4-methyl-2,5-dimethoxyamphetamine] | 4,272 ± 215 cm |
| CCCc1cc(OC)c(CC(C)N)cc1OC.Cl (centres unmarked) [DOPR, 4-propyl-2,5-dimethoxyamphetamine hydrochloride] | 3,500 ± 278 cm |

Same assay, conditions: 3 mg/kg s.c.; 30-min session; mean ± SEM

| Structure (SMILES) | Locomotor activity (distance traveled) |
| --- | --- |
| COc1ccc(OC)c(CC(C)N)c1.Cl (centres unmarked) [2,5-DMA, 2,5-Dimethoxyamphetamine hydrochloride] | 2,780 ± 415 cm |
| CCCCCc1cc(OC)c(CC(C)N)cc1OC (centres unmarked) [DOAM, 4-amyl-2,5-dimethoxyamphetamine] | 2,884 ± 249 cm |
| CCCCc1cc(OC)c(CC(C)N)cc1OC (centres unmarked) [DOBU, 4-butyl-2,5-dimethoxyamphetamine] | 3,348 ± 297 cm |
| COc1cc(CC(C)N)c(OC)cc1C (centres unmarked) [DOM, 4-methyl-2,5-dimethoxyamphetamine] | 3,556 ± 278 cm |
| CCCc1cc(OC)c(CC(C)N)cc1OC.Cl (centres unmarked) [DOPR, 4-propyl-2,5-dimethoxyamphetamine hydrochloride] | 1,648 ± 262 cm |

Same assay, conditions: 10 mg/kg s.c.; 30-min session; mean ± SEM

| Structure (SMILES) | Locomotor activity (distance traveled) |
| --- | --- |
| COc1ccc(OC)c(CC(C)N)c1.Cl (centres unmarked) [2,5-DMA, 2,5-Dimethoxyamphetamine hydrochloride] | 1,801 ± 171 cm |
| CCCCCc1cc(OC)c(CC(C)N)cc1OC (centres unmarked) [DOAM, 4-amyl-2,5-dimethoxyamphetamine] | 3,433 ± 325 cm |
| CCCCc1cc(OC)c(CC(C)N)cc1OC (centres unmarked) [DOBU, 4-butyl-2,5-dimethoxyamphetamine] | 1,167 ± 195 cm |
| COc1cc(CC(C)N)c(OC)cc1C (centres unmarked) [DOM, 4-methyl-2,5-dimethoxyamphetamine] | 2,186 ± 443 cm |
| CCCc1cc(OC)c(CC(C)N)cc1OC.Cl (centres unmarked) [DOPR, 4-propyl-2,5-dimethoxyamphetamine hydrochloride] | 665 ± 82 cm |

Same assay, conditions: 30 mg/kg s.c.; 30-min session; mean ± SEM

| Structure (SMILES) | Locomotor activity (distance traveled) |
| --- | --- |
| COc1ccc(OC)c(CC(C)N)c1.Cl (centres unmarked) [2,5-DMA, 2,5-Dimethoxyamphetamine hydrochloride] | 1,169 ± 214 cm |
| CCCCCc1cc(OC)c(CC(C)N)cc1OC (centres unmarked) [DOAM, 4-amyl-2,5-dimethoxyamphetamine] | 1,724 ± 138 cm |
| CCCCc1cc(OC)c(CC(C)N)cc1OC (centres unmarked) [DOBU, 4-butyl-2,5-dimethoxyamphetamine] | 793 ± 154 cm |
| COc1cc(CC(C)N)c(OC)cc1C (centres unmarked) [DOM, 4-methyl-2,5-dimethoxyamphetamine] | 606 ± 47 cm |
